This passage reports DC50 and Dmax results from patent US12091426B2, “Bifunctional degraders of hematopoietic progenitor kinase and therapeutic uses thereof” (Nurix Therapeutics, Inc., priority 2021, dated 2024).

The target in the test is T1, HPK1 (Homo sapiens, UniProt Q92918).
T1 construct: A HiBiT tag was introduced by CRISPR on the N terminus of HPK1 in Jurkat cells; host or cells: Jurkat cells (ATCC TIB-152), monoclonal line with CRISPR knock-in of HiBiT at the endogenous HPK1 locus
Nature of the test: HPK1 Cellular HiBit Degradation Assay. Particulars: HiBiT HPK1 Jurkat cells, 24 hrs; for DC50: concentration at which 50% of HPK1 was remaining, read-out: DC50 Category; for Dmax: Jurkat, maximum degradation vs DMSO vehicle control, read-out: Dmax Category. It is filed as cell-based. A digest of the protocol: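 Jurkat cells with CRISPR N-terminal HiBiT-tagged endogenous HPK1 treated 24 h at 37 °C with 11-point, 3.16-fold dilutions (10 uM to 0.1 nM final). HiBiT lytic luminescence gives % HPK1 remaining versus DMSO, with parental cells as background. Four-parameter fit yields DC50; Dmax = 100 minus lowest % remaining.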

T1 sequence (Q92918 whole entry): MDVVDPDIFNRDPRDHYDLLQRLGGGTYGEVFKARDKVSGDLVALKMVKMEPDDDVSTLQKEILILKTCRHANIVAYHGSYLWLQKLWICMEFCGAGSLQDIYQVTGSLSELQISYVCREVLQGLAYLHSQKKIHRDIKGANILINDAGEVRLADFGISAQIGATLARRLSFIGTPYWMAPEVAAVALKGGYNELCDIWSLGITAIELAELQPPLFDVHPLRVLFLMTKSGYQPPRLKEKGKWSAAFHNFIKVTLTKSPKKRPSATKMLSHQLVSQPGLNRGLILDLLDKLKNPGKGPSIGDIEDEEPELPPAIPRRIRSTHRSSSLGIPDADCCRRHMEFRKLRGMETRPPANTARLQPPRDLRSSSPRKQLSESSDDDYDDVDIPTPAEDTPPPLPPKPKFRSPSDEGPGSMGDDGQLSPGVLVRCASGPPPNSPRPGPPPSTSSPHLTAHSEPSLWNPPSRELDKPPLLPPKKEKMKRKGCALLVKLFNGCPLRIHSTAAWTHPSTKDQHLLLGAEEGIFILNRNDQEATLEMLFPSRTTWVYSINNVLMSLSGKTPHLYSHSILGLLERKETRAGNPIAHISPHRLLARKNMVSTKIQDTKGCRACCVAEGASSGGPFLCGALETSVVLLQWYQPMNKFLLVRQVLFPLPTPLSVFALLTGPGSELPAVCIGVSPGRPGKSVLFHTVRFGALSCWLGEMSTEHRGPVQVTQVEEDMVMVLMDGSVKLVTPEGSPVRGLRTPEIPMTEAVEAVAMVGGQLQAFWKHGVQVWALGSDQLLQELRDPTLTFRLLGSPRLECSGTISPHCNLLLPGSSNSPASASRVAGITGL

On to `CC(C)n1cnc2cc(-c3ccc4c(c3)N([C@H]3C[C@@H](N5CCCCC5)C3)C(=O)C43CCN(C(=O)C4CCN(C(=O)C5CCN(c6ncc(C7CCC(=O)NC7=O)cn6)CC5)CC4)CC3)nc(Nc3ccncc3F)c21` (mixture of isomers) [Example 91, (3RS)-3-[2-(4-{4-[(6-{4-[(3-Fluoropyridin-4-yl)amino]-3-(propan-2-yl)-3H-imidazo[4,5-c]pyridin-6-yl}-2-oxo-1-[(1S,3S)-3-(piperidin-1-yl)cyclobutyl]-1,2-dihydrospiro[indole-3,4′-piperidin]-1′-yl)carbonyl]piperidine-1-carbonyl}piperidin-1-yl)pyrimidin-5-yl]piperidine-2,6-dione], for which the 50% degradation concentration (DC50) is 100 to 500 nM and the Dmax lay in the range of 50 to 70%.
The corresponding values for `CC(C)n1cnc2cc(-c3ccc4c(c3)N([C@H]3C[C@@H](N5CCCCC5)C3)C(=O)C43CCN(C(=O)C4CCN(C(=O)CC5CCN(c6ccc(C7CCC(=O)NC7=O)cn6)CC5)CC4)CC3)nc(NC3CC3)c21` (mixture of isomers) [Example 93, (3RS)-3-[6-(4-{2-[4-({6-[4-(cyclopropylamino)-3-(propan-2-yl)-3H-imidazo[4,5-c]pyridin-6-yl]-2-oxo-1-[(1S,3S)-3-(piperidin-1-yl)cyclobutyl]-1,2-dihydrospiro[indole-3,4′-piperidin]-1′-yl}carbonyl)piperidin-1-yl]-2-oxoethyl}piperidin-1-yl)pyridin-3-yl]piperidine-2,6-dione] are less than 100 nM and 50 to 70%.
On the same counts, the results for `CC(C)n1cnc2cc(-c3ccc4c(c3)N([C@H]3C[C@@H](N5CCCCC5)C3)C(=O)C43CCN(C(=O)C4CCN(C(=O)CN5CCN(c6ccc(C7CCC(=O)NC7=O)cn6)CC5)CC4)CC3)nc(NC3CC3)c21` (mixture of isomers) [Example 94, (3RS)-3-[6-(4-{2-[4-({6-[4-(cyclopropylamino)-3-(propan-2-yl)-3H-imidazo[4,5-c]pyridin-6-yl]-2-oxo-1-[(1S,3S)-3-(piperidin-1-yl)cyclobutyl]-1,2-dihydrospiro[indole-3,4′-piperidin]-1′-yl}carbonyl)piperidin-1-yl]-2-oxoethyl}piperazin-1-yl)pyridin-3-yl]piperidine-2,6-dione] are less than 100 nM and 50 to 70%.
Regarding `CC(C)n1cnc2cc(-c3ccc4c(c3)N([C@H]3C[C@@H](N5CCCCC5)C3)C(=O)C43CCN(C(=O)C4CCN(C(=O)CN5CCN(c6ccc(C7CCC(=O)NC7=O)cn6)CC5)CC4)CC3)nc(Nc3ccccc3F)c21` (mixture of isomers) [Example 95, (3RS)-3-{6-[4-(2-{4-[(6-{4-[(2-fluorophenyl)amino]-3-(propan-2-yl)-3H-imidazo[4,5-c]pyridin-6-yl}-2-oxo-1-[(1S,3S)-3-(piperidin-1-yl)cyclobutyl]-1,2-dihydrospiro[indole-3,4′-piperidin]-1′-yl)carbonyl]piperidin-1-yl}-2-oxoethyl)piperazin-1-yl]pyridin-3-yl}piperidine-2,6-dione], the DC50 is less than 100 nM and the maximal degradation (Dmax) fell in the range of 70 to 85%.
Regarding `CC(C)n1cnc2cc(-c3ccc4c(c3)N([C@H]3C[C@@H](N5CCCCC5)C3)C(=O)C43CCN(C(=O)C4CCN(C(=O)CN5CCN(c6ccc(C7CCC(=O)NC7=O)cn6)CC5)CC4)CC3)nc(Nc3ccncc3F)c21` (mixture of isomers) [Example 96, (3RS)-3-{6-[4-(2-{4-[(6-{4-[(3-fluoropyridin-4-yl)amino]-3-(propan-2-yl)-3H-imidazo[4,5-c]pyridin-6-yl}-2-oxo-1-[(1S,3S)-3-(piperidin-1-yl)cyclobutyl]-1,2-dihydrospiro[indole-3,4′-piperidin]-1′-yl)carbonyl]piperidin-1-yl}-2-oxoethyl)piperazin-1-yl]pyridin-3-yl}piperidine-2,6-dione], the DC50 lay within 100 to 500 nM and the Dmax was in the range of 70 to 85%.
The corresponding values for `CC(C)n1cnc2cc(-c3ccc4c(c3)N([C@H]3C[C@@H](N5CCCCC5)C3)C(=O)C43CCN(C(=O)C4CCN(C(=O)N5CCC(c6ccc(C7CCC(=O)NC7=O)cn6)CC5)CC4)CC3)nc(Nc3ccccc3F)c21` (mixture of isomers) [Example 97, (3RS)-3-[6-(1-{4-[(6-{4-[(2-fluorophenyl)amino]-3-(propan-2-yl)-3H-imidazo[4,5-c]pyridin-6-yl}-2-oxo-1-[(1S,3S)-3-(piperidin-1-yl)cyclobutyl]-1,2-dihydrospiro[indole-3,4′-piperidin]-1′-yl)carbonyl]piperidine-1-carbonyl}piperidin-4-yl)pyridin-3-yl]piperidine-2,6-dione] are 500 to 1000 nM and 50 to 70%.
The corresponding values for `CC(C)n1cnc2cc(-c3ccc4c(c3)N([C@H]3C[C@@H](N5CCCCC5)C3)C(=O)C43CCN(C(=O)C4CCN(CCC5CCN(c6ccc(C7CCC(=O)NC7=O)cn6)CC5)CC4)CC3)nc(Nc3ccccc3F)c21` (mixture of isomers) [Example 98, (3RS)-3-{6-[4-(2-{4-[(6-{4-[(2-fluorophenyl)amino]-3-(propan-2-yl)-3H-imidazo[4,5-c]pyridin-6-yl}-2-oxo-1-[(1S,3S)-3-(piperidin-1-yl)cyclobutyl]-1,2-dihydrospiro[indole-3,4′-piperidin]-1′-yl)carbonyl]piperidin-1-yl}ethyl)piperidin-1-yl]pyridin-3-yl}piperidine-2,6-dione] are 500 to 1000 nM and more than 85%.
The corresponding values for `Cc1cc(F)c(Nc2nc(-c3ccc4c(c3)N([C@H]3C[C@@H](N5CCCCC5)C3)C(=O)C43CCN(C(=O)CC4CCN(C(=O)C5CCN(C(=O)CNc6cccc7c6C(=O)N(C6CCC(=O)NC6=O)C7=O)CC5)CC4)CC3)cc3ncn(C(C)C)c23)cc1C(=O)NC(C)C` (mixture of isomers) [Example 99, 5-[(6-{1′-[2-(1-{1-[2-({2-[(3RS)-2,6-dioxopiperidin-3-yl]-1,3-dioxo-2,3-dihydro-1H-isoindol-4-yl}amino)acetyl]piperidine-4-carbonyl}piperidin-4-yl)acetyl]-2-oxo-1-[(1S,3S)-3-(piperidin-1-yl)cyclobutyl]-1,2-dihydrospiro[indole-3,4′-piperidin]-6-yl}-3-(propan-2-yl)-3H-imidazo[4,5-c]pyridin-4-yl)amino]-4-fluoro-2-methyl-N-(propan-2-yl)benzamide] are 500 to 1000 nM and 50 to 70%.
With `CC(C)n1cnc2cc(-c3ccc4c(c3)N([C@H]3C[C@@H](N5CCCCC5)C3)C(=O)C43CCN(C(=O)c4ccc(C(=O)N5CCN(c6ccc(C7CCC(=O)NC7=O)cn6)C[C@H]5C)cc4)CC3)nc(Nc3ccccc3F)c21` (mixture of isomers) [Example 100, (3RS)-3-{6-[(3R)-4-{4-[(6-{4-[(2-fluorophenyl)amino]-3-(propan-2-yl)-3H-imidazo[4,5-c]pyridin-6-yl}-2-oxo-1-[(1S,3S)-3-(piperidin-1-yl)cyclobutyl]-1,2-dihydrospiro[indole-3,4′-piperidin]-1′-yl)carbonyl]benzoyl}-3-methylpiperazin-1-yl]pyridin-3-yl}piperidine-2,6-dione], the DC50 fell in the range of 100 to 500 nM and the Dmax fell in the range of 70 to 85%.
The corresponding values for `CC(C)n1cnc2cc(-c3ccc4c(c3)N([C@H]3C[C@@H](N5CCCCC5)C3)C(=O)C43CCN(C(=O)C4(C)CCN(C(=O)[C@H]5CC[C@H](Oc6ccc(C7CCC(=O)NC7=O)cc6)CC5)CC4)CC3)nc(NC3CC3)c21` (mixture of isomers) [Example 101, (3RS)-3-(4-{[(1R,4R)-4-[4-({6-[4-(cyclopropylamino)-3-(propan-2-yl)-3H-imidazo[4,5-c]pyridin-6-yl]-2-oxo-1-[(1S,3S)-3-(piperidin-1-yl)cyclobutyl]-1,2-dihydrospiro[indole-3,4′-piperidin]-1′-yl}carbonyl)-4-methylpiperidine-1-carbonyl]cyclohexyl]oxy}phenyl)piperidine-2,6-dione] are less than 100 nM and 70 to 85%.
On the same counts, the results for `CC(C)n1cnc2cc(-c3ccc4c(c3)N([C@H]3C[C@@H](N5CCCCC5)C3)C(=O)C43CCN(C(=O)C4(C)CCN(C(=O)[C@H]5CC[C@H](Oc6ccc(C7CCC(=O)NC7=O)cc6)CC5)CC4)CC3)nc(Nc3ccccc3F)c21` (mixture of isomers) [Example 102, (3RS)-3-(4-{[(1R,4R)-4-{4-[(6-{4-[(2-fluorophenyl)amino]-3-isopropylimidazo[4,5-c]pyridin-6-yl}-2-oxo-1-[(1S,3S)-3-(piperidin-1-yl)cyclobutyl]spiro[indole-3,4′-piperidin]-1′-yl)carbonyl]-4-methylpiperidine-1-carbonyl}cyclohexyl]oxy}phenyl)piperidine-2,6-dione] are less than 100 nM and more than 85%.
On the same counts, the results for `CC(C)n1cnc2cc(-c3ccc4c(c3)N([C@H]3C[C@@H](N5CCCCC5)C3)C(=O)C43CCN(C(=O)C4(C)CCN(C(=O)[C@H]5CC[C@H](Oc6ccc(C7CCC(=O)NC7=O)cc6)CC5)CC4)CC3)nc(Nc3ccncc3F)c21` (mixture of isomers) [Example 103, (3RS)-3-(4-{[(1R,4R)-4-{4-[(6-{4-[(3-Fluoropyridin-4-yl)amino]-3-(propan-2-yl)-3H-imidazo[4,5-c]pyridin-6-yl}-2-oxo-1-[(1S,3S)-3-(piperidin-1-yl)cyclobutyl]-1,2-dihydrospiro[indole-3,4′-piperidin]-1′-yl)carbonyl]-4-methylpiperidine-1-carbonyl}cyclohexyl]oxy}phenyl)piperidine-2,6-dione] are less than 100 nM and 70 to 85%.

By DC50 is commonly meant the concentration at which degradation of the target reaches its halfway point. The Dmax is the largest share of the target that was removed.
